According to patent US11180504B2 (ORCHID PHARMA LTD., priority 2016, dated 2021):
≈ marks a conversion by molar mass, not a printed value. Like-named read-outs stand apart in the source and are kept apart here.

Legend:
[1] = test system: carbapenem sensitive Pseudomonas aeruginosa; assay: MIC by broth micro-dilution (CLSI), carbapenem sensitive P. aeruginosa; format: cell-based
[2] = test system: carbapenem sensitive Escherichia coli; assay: MIC by broth micro-dilution (CLSI), carbapenem sensitive E. coli; format: cell-based
[3] = test system: methicillin-sensitive Staphylococcus aureus; assay: MIC by broth micro-dilution (CLSI), methicillin-sensitive S. aureus; format: cell-based; details: MSSA S. aureus ATCC29213
[4] = test system: carbapenemase producing K. pneumoniae; assay: MIC by broth micro-dilution (CLSI), carbapenemase producing K. pneumoniae; format: cell-based, Klebsiella pneumoniae
[5] = Pseudomonas aeruginosa, ATCC27853, Meropenem susceptible P. aeruginosa ATCC27853, read-out: MIC
[6] = Escherichia coli, ATCC25922, ESBL −ve E. coli ATCC25922, read-out: MIC
[7] = Staphylococcus aureus, ATCC 29213 / MSSA, read-out: MIC
[8] = Klebsiella pneumoniae, ATCCBAA1705, KPC-2 K. pneumoniae ATCC BAA-1705, read-out: MIC

Compound `C[C@@H](NC(=O)Cn1cnnn1)[C@H]1C(=O)N2C(C(=O)O)=C(S[C@@H]3CN[C@H](C(=O)N4CCN(C(=O)[C@H]5C[C@@H](N)CN5)CC4)C3)[C@H](C)[C@H]12` [Example 434, (4R,5S,6R)-6-((R)-1-(2-(1H-tetrazol-1-yl)acetamido)ethyl)-3-((3S,5S)-5-(4-((2R,4R)-4-aminopyrrolidine-2-carbonyl)piperazine-1-carbonyl)pyrrolidin-3-ylthio)-4-methyl-7-oxo-1-azabicyclo[3.2.0]hept-2-ene-2-carboxylic acid] has an MIC [1, 5] of 2 µg/mL (≈ 3.1 µM), an MIC [2, 6] of 0.5 µg/mL (≈ 0.774 µM) and an MIC [3, 7] of 2 µg/mL (≈ 3.1 µM). It also gave an MIC [4, 8] of 2 µg/mL (≈ 3.1 µM).

Work on `C[C@@H](NC(=O)Cn1cnnn1)[C@H]1C(=O)N2C(C(=O)O)=C(S[C@@H]3CN[C@H](C(=O)N4CCC5(CCNC5)CC4)C3)[C@H](C)[C@H]12` [Example 435, (4R,5S,6R)-6-((R)-1-(2-(1H-tetrazol-1-yl)acetamido)ethyl)-3-((3S,5S)-5-(2,8-diazaspiro[4.5]decane-8-carbonyl)pyrrolidin-3-ylthio)-4-methyl-7-oxo-1-azabicyclo[3.2.0]hept-2-ene-2-carboxylic acid] yielded an MIC [1, 5] of 1 µg/mL (≈ 1.7 µM), an MIC [2, 6] of 0.25 µg/mL (≈ 0.425 µM) and an MIC [3, 7] of 2 µg/mL (≈ 3.4 µM). It also gave an MIC [4, 8] of 1 µg/mL (≈ 1.7 µM).

For `C[C@@H](NC(=O)Cn1cnnn1)[C@H]1C(=O)N2C(C(=O)O)=C(S[C@@H]3CN[C@H](C(=O)N(CCO)CCO)C3)[C@H](C)[C@H]12` [Example 436, (4R,5S,6R)-6-((R)-1-(2-(1H-tetrazol-1-yl)acetamido)ethyl)-3-((3S,5S)-5-(bis(2-hydroxyethyl)carbarnoyl)pyrrolidin-3-ylthio)-4-methyl-7-oxo-1-azabicyclo[3.2.0]hept-2-ene-2-carboxylic acid], the MIC [1, 5] was 8 µg/mL (≈ 14.5 µM), the MIC [2, 6] was 0.25 µg/mL (≈ 0.452 µM) and the MIC [3, 7] was 8 µg/mL (≈ 14.5 µM). For the same compound, the MIC [4, 8] was 1 µg/mL (≈ 1.81 µM).

`C[C@@H](NC(=O)Cn1cnnn1)[C@H]1C(=O)N2C(C(=O)O)=C(S[C@@H]3CN[C@H](C(=O)N4CCC(CNCC(N)=O)CC4)C3)[C@H](C)[C@H]12` [Example 437, (4R,5S,6R)-6-((R)-1-(2-(1H-tetrazol-1-yl)acetamido)ethyl)-3-((3S,5S)-5-(4-((2-amino-2-oxoethylamino)methyl)piperidine-1-carbonyl)pyrrolidin-3-ylthio)-4-methyl-7-oxo-1-azabicyclo[3.2.0]hept-2-ene-2-carboxylic acid] gave an MIC [1, 5] of 2 µg/mL (≈ 3.23 µM), an MIC [2, 6] of 0.25 µg/mL (≈ 0.404 µM) and an MIC [3, 7] of 2 µg/mL (≈ 3.23 µM). The MIC [4, 8] was 1 µg/mL (≈ 1.62 µM).

Work on `C[C@@H](NC(=O)Cn1cnnn1)[C@H]1C(=O)N2C(C(=O)O)=C(S[C@@H]3CN[C@H](C(=O)N4CCC5CNCCC54)C3)[C@H](C)[C@H]12` (stereo partly drawn) [Example 439, (4R,5S,6R)-6-((R)-1-(2-(1H-tetrazol-1-yl)acetamido)ethyl)-4-methyl-3-((3S,5S)-5-(octahydro-1H-pyrrolo[3,2-c]pyridine-1-carbonyl)pyrrolidin-3-ylthio)-7-oxo-1-azabicyclo[3.2.0]hept-2-ene-2-carboxylic acid] yielded an MIC ([1]; Meropenem susceptible P. aeruginosa ATCC27853) of 1 µg/mL (≈ 1.74 µM), an MIC ([2]; ESBL −ve E. coli ATCC25922) of 0.25 µg/mL (≈ 0.436 µM) and an MIC [3] of 2 µg/mL (≈ 3.49 µM). For the same compound, the MIC ([4]; KPC-2 K. pneumoniae ATCC BAA-1705) was 1 µg/mL (≈ 1.74 µM).

With `C[C@@H](NC(=O)Cn1cnnn1)[C@H]1C(=O)N2C(C(=O)O)=C(S[C@@H]3CN[C@H](C(=O)N4C[C@H](N)C[C@H]4CO)C3)[C@H](C)[C@H]12` [Example 440, (4R,5S,6R)-6-((R)-1-(2-(1H-tetrazol-1-yl)acetamido)ethyl)-3-((3S,5S)-5-((2S,4R)-4-amino-2-(hydroxymethyl)pyrrolidine-1-carbonyl)pyrrolidin-3-ylthio)-4-methyl-7-oxo-1-azabicyclo[3.2.0]hept-2-ene-2-carboxylic acid] the MIC [1, 5] was 1 µg/mL (≈ 1.77 µM), the MIC [2, 6] was 0.25 µg/mL (≈ 0.444 µM) and the MIC [3, 7] was 2 µg/mL (≈ 3.55 µM). It also gave an MIC [4, 8] of 1 µg/mL (≈ 1.77 µM).

`C[C@@H](NC(=O)Cn1cnnn1)[C@H]1C(=O)N2C(C(=O)O)=C(S[C@@H]3CN[C@H](C(=O)N4C[C@@H](N)C[C@H]4CNS(C)(=O)=O)C3)[C@H](C)[C@H]12` [Example 441, (4R,5S,6R)-6-((R)-1-(2-(1H-tetrazol-1-yl)acetamido)ethyl)-3-((3S,5S)-5-((2S,4S)-4-amino-2-(methylsulfonamido-methyl)pyrrolidine-1-carbonyl)pyrrolidin-3-ylthio)-4-methyl-7-oxo-1-azabicyclo[3.2.0]hept-2-ene-2-carboxylic acid] gave an MIC [1, 5] of 8 µg/mL (≈ 12.5 µM), an MIC [2, 6] of 0.25 µg/mL (≈ 0.39 µM) and an MIC [3, 7] of 4 µg/mL (≈ 6.24 µM). For the same compound, the MIC [4, 8] was 2 µg/mL (≈ 3.12 µM).

With `C[C@@H](NC(=O)Cn1cnnn1)[C@H]1C(=O)N2C(C(=O)O)=C(S[C@@H]3CN[C@H](C(=O)N4CCN(C[C@@H](O)CN)CC4)C3)[C@H](C)[C@H]12` [Example 442, (4R,5S,6R)-6-((R)-1-(2-(1H-tetrazol-1-yl)acetamido)ethyl)-3-((3S,5S)-5-(4-((S)-3-amino-2-hydroxypropyl)piperazioe-1-carbonyl)pyrrolidin-3-ylthio)-4-methyl-7-oxo-1-azabicyclo[3.2.0]hept-2-ene-2-carboxylic acid] the MIC [1, 5] was 0.5 µg/mL (≈ 0.824 µM), the MIC [2, 6] was 0.125 µg/mL (≈ 0.206 µM) and the MIC [3, 7] was 2 µg/mL (≈ 3.3 µM). For the same compound, the MIC [4, 8] was 1 µg/mL (≈ 1.65 µM).

For `C[C@@H](NC(=O)Cn1cnnn1)[C@H]1C(=O)N2C(C(=O)O)=C(S[C@@H]3CN[C@H](C(=O)N4CCC(CNCCN)CC4)C3)[C@H](C)[C@H]12` [Example 443, (4R,5S,6R)-6-((R)-1-(2-(1H-tetrazol-1-yl)acetamido)ethyl)-3-((3S,5S)-5-(4-((2-aminoethylamino)methyl)piperidine-1-carbonyl)pyrrolidin-3-ylthio)-4-methyl-7-oxo-1-azabicyclo[3.2.0]hept-2-ene-2-carboxylic acid], the MIC [1, 5] was 1 µg/mL (≈ 1.65 µM), the MIC [2, 6] was 0.5 µg/mL (≈ 0.827 µM) and the MIC [3, 7] was 4 µg/mL (≈ 6.61 µM). The MIC [4, 8] was 2 µg/mL (≈ 3.31 µM).

Work on `C[C@@H](NC(=O)Cn1cnnn1)[C@H]1C(=O)N2C(C(=O)O)=C(S[C@@H]3CN[C@H](C(=O)N4C[C@H](N)C[C@H]4CN)C3)[C@H](C)[C@H]12` [Example 444] yielded an MIC [1, 5] of 2 µg/mL (≈ 3.55 µM), an MIC [2, 6] of 0.5 µg/mL (≈ 0.889 µM) and an MIC [3, 7] of 2 µg/mL (≈ 3.55 µM). It also gave an MIC [4, 8] of 2 µg/mL (≈ 3.55 µM).

In the case of `C[C@@H](NC(=O)Cn1cnnn1)[C@H]1C(=O)N2C(C(=O)O)=C(S[C@@H]3CN[C@H](C(=O)N4CCN(CCCN)CC4)C3)[C@H](C)[C@H]12` [Example 445, (4R,5S,6R)-6-((R)-1-(2-(1H-tetrazol-1-yl)acetamido)ethyl)-3-((3S,5S)-5-(4-(3-aminopropyl)piperazine-1-carbooyl)pyrrolidin-3-ylthio)-4-methyl-7-oxo-1-azabicyclo[3.2.0]hept-2-ene-2-carboxylic acid], the MIC [1, 5] is reported as 1 µg/mL (≈ 1.69 µM), the MIC [2, 6] is reported as 0.25 µg/mL (≈ 0.423 µM) and the MIC [3, 7] is reported as 2 µg/mL (≈ 3.39 µM). For the same compound, the MIC [4, 8] was 1 µg/mL (≈ 1.69 µM).

In the case of `C[C@@H](NC(=O)Cn1cnnn1)[C@H]1C(=O)N2C(C(=O)O)=C(S[C@@H]3CN[C@H](C(=O)N4CCN(C(=O)CNC(=N)N)CC4)C3)[C@H](C)[C@H]12` [Example 446, (4R,5S,6R)-6-((R)-1-(2-(1H-tetrazol-1-yl)acetamido)ethyl)-3-((3S,5S)-5-(4-(2-guanidinoacetyl)piperazine-1-carbonyl)pyrrolidin-3-ylthio)-4-methyl-7-oxo-1-azabicyclo[3.2.0]hept-2-ene-2-carboxylic acid], the MIC [1, 5] is reported as 4 µg/mL (≈ 6.32 µM), the MIC [2, 6] is reported as 0.25 µg/mL (≈ 0.395 µM) and the MIC [3, 7] is reported as 2 µg/mL (≈ 3.16 µM). It also gave an MIC [4, 8] of 1 µg/mL (≈ 1.58 µM).
